These results are taken from US12606556B2, “TYK-2 inhibitor” (BEIGENE, LTD., priority 2020, dated 2026).

Assay [1] concerns JAK2, TYK2/p-STAT4 (Tyr693) activated by IL-12 in NK-92 cell line. Description: IL-12-JAK2, TYK2/p-STAT4 (Tyr693) inhibition cellular assay. The assay is classed as cell-based. To be noted: for IC50: NK92, 0.5 h, NK-92 cells, IL-12 40 ng/ml, 30 min, read-out: Cellular assay pSTAT4/IL-12 IC50; for Cellular assay Selectivity fold (TYK2/JAK1): pSTAT4/IL-12 vs pSTAT3/IL-6 cellular IC50. In outline:
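NK-92 cells were starved overnight without IL-2 and seeded at 5×10^4 per well in 1640 medium with 0.1% BSA. Lysate p-STAT4 (Tyr693) was measured by AlphaLISA SureFire, and IC50 was fitted with a 4-parameter logistic model.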

The target in assay [2] is T1, TYK2-JH2 (aa 575-869, in-house) protein (Homo sapiens, UniProt P29597).
T1 construct: TYK2-JH2 (aa 575-869, in-house) protein; made in house
The experiment in a line: TYK2-JH2 biochemical assay (HTRF, blocking of TYK2-JH2 protein with its probe). The assay is classed as binding. To be noted: for IC50: HTRF, 0.2 nM recombinant TYK2-JH2, Probe 1; for Biochemical assay Selectivity fold (TYK2/JAK1): TYK2-JH2 vs JAK1-JH2 biochemical IC50. In outline: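 Recombinant TYK2-JH2 (0.2 nM) pre-incubated with compounds (10 doses, 5-fold dilutions) 0.5 h at RT in HEPES pH 7.5 buffer with MgCl2, BSA, DTT, Brij-35; biotinylated probe (10 nM working solution, KD=10 nM) plus anti-6His Tb cryptate/streptavidin-XL665 added, 1 h RT. HTRF ratio read; IC50 from four-parameter logistic fit.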
(In TR-FRET formats the signal depends on donor and acceptor labels being close together.)

For assay [3], the system named is JAK1/p-STAT3(Tyr705) activated by IL-6 in TF-1 cell line. Description: IL-6-JAK1/p-STAT3(Tyr705) inhibition cellular assay. The assay is classed as cell-based. Particulars: Homo sapiens, 0.5 h; TF-1 cells, IL-6 50 ng/ml, 30 min; read-out: Cellular assay pSTAT3/IL-6 IC50.
The target of assay [4] is T2, JAK1-JH2 protein (aa 561-860, in-house) (Homo sapiens, UniProt P23458).
T2 construct: JAK1-JH2 protein (aa 561-860, in-house); made in house
Description: JAK1-JH2 biochemical assay (HTRF, blocking of JAK1-JH2 protein with its probe). Particulars: 1.17 nM recombinant JAK1-JH2, Probe 2. The assay is classed as binding. In outline: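 HTRF probe-displacement assay using recombinant human JAK1 pseudokinase domain (aa 561-860, 1.17 nM in pre-incubation step), pre-incubated 0.5 h at room temperature with 10-dose 5-fold compound series. Buffer: 20 mM HEPES pH 7.5, 10 mM MgCl2, 0.005% BSA, 2 mM DTT, 0.015% Brij-35. IC50 by four-parameter logistic fit of 615/665 nm ratio.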

T1 sequence (P29597 575-869): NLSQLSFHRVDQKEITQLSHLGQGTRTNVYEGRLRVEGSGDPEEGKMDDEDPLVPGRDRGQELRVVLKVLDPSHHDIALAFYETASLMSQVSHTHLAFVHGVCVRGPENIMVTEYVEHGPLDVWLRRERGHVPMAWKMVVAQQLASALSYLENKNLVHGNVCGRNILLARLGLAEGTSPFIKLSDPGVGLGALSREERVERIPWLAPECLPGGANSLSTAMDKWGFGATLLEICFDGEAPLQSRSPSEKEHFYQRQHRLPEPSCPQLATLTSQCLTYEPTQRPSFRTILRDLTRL
T2 sequence (P23458 561-860): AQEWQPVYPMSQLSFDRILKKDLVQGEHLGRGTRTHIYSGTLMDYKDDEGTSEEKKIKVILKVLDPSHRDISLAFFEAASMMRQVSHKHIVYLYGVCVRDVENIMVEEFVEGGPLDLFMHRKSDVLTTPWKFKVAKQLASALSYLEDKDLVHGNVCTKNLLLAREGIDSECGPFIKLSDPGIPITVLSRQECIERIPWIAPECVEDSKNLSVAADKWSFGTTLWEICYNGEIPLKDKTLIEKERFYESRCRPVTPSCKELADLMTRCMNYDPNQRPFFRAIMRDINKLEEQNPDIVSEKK

With `CNC(=O)c1nnc(NC(=O)C2CC2)cc1Nc1nc2ccc(N3CC(F)(CO)C3)cn2n1` [Example J1, 6-(cyclopropanecarboxamido)-4-((6-(3-fluoro-3-(hydroxymethyl)azetidin-1-yl)-[1,2,4]triazolo[1,5-a]pyridin-2-yl)amino)-N-methylpyridazine-3-carboxamide], the IC50 was 15.6 nM in assay [1], 0.086 nM in assay [2], above 10 µM in assay [3] and 1.8 nM in assay [4]. In assay [1], the “Cellular assay Selectivity fold (TYK2/JAK1)” value was above 641 fold. Besides, in assay [2], the “Biochemical assay Selectivity fold (TYK2/JAK1)” value came out at 21 fold.
As to `CNC(=O)c1nnc(NC(=O)C2CC2)cc1Nc1nc2ccc(N3CCC3CO)cn2n1` (stereo not drawn) [Example J2, 6-(cyclopro-panecar-boxamido)-4-((6-(2-(hydroxy-methyl)azetidin-1-yl)-[1,2,4]triazolo[1,5-a]pyridin-2-yl)amino)-N-methyl-pyridazine-3-carboxamide], the IC50 stood at 14.9 nM in assay [1], 0.053 nM in assay [2], 4.36 µM in assay [3] and 1.3 nM in assay [4]. Also, the “Cellular assay Selectivity fold (TYK2/JAK1)” value in assay [1] is listed as 292 fold. Moreover, the “Biochemical assay Selectivity fold (TYK2/JAK1)” value in assay [2] is 25 fold.
For `CNC(=O)c1nnc(NC(=O)C2CC2)cc1Nc1nc2ccc(N3C(=O)CC3c3ccccc3)cn2n1` (stereo not drawn) [Example K1, 6-(cyclopropanecarboxamido)-N-methyl-4-((6-(2-oxo-4-phenylazetidin-1-yl)-[1,2,4]triazolo[1,5-a]pyridin-2-yl)amino)pyridazine-3-carboxamide], the IC50 in assay [1] was 219 nM; in assay [2] it was 0.5 nM; in assay [3], above 10 µM; in assay [4], 3.8 nM. For the same compound, the “Cellular assay Selectivity fold (TYK2/JAK1)” value in assay [1] is listed as above 46 fold. In addition, the “Biochemical assay Selectivity fold (TYK2/JAK1)” value in assay [2] was 8 fold.
As for `CNC(=O)c1nnc(NC(=O)C2CC2)cc1Nc1nc2ccc(C3CN(S(C)(=O)=O)C3)cn2n1` [Example L1, 6-(cyclopropanecarboxamido)-N-methyl-4-((6-(1-(methylsulfonyl)azetidin-3-yl)-[1,2,4]triazolo[1,5-a]pyridin-2-yl)amino)pyridazine-3-carboxamide], the IC50 in assay [1] was 50.9 nM; in assay [2] it was 0.093 nM; in assay [3], above 10 µM; in assay [4] it was 3.7 nM. Moreover, the “Cellular assay Selectivity fold (TYK2/JAK1)” value in assay [1] is above 196 fold. Moreover, the “Biochemical assay Selectivity fold (TYK2/JAK1)” value in assay [2] was found to be 40 fold.
Consider `CNC(=O)c1nnc(NC(=O)C2CC2)cc1Nc1nc2ccc(C3CN(C(C)=O)C3)cn2n1` [Example L2, 4-((6-(1-acetylazetidin-3-yl)-[1,2,4]triazolo[1,5-a]pyridin-2-yl)amino)-6-(cyclopropanecarboxamido)-N-methylpyridazine-3-carboxamide], for which the IC50 in assay [1] was 276 nM; in assay [2], 0.081 nM; in assay [3], above 10 µM; in assay [4], 2.6 nM. In assay [1], the “Cellular assay Selectivity fold (TYK2/JAK1)” value is on record as above 36 fold. For the same compound, the “Biochemical assay Selectivity fold (TYK2/JAK1)” value in assay [2] is 32 fold.
For the compound `CNC(=O)c1nnc(NC(=O)C2CC2)cc1Nc1nc2ccc(C3CN(C(=O)c4cccnc4)C3)cn2n1` [Example L3, 6-(cyclopropanecarboxamido)-N-methyl-4-((6-(1-nicotinoylazetidin-3-yl)-[1,2,4]triazolo[1,5-a]pyridin-2-yl)amino)pyridazine-3-carboxamide], the IC50 was 127 nM in assay [1], 0.072 nM in assay [2], above 10 µM in assay [3] and 1.5 nM in assay [4]. For the same compound, the “Cellular assay Selectivity fold (TYK2/JAK1)” value in assay [1] is above 79 fold. Also, the “Biochemical assay Selectivity fold (TYK2/JAK1)” value in assay [2] amounted to 21 fold.
